Details in all cases: route oral
For experiment [1], the system named is Rattus norvegicus. As to the kind of experiment: Cumulative effect on spontaneous motor activity in rats at 300 mg/kg given perorally. In kind it is functional.
Experiment [2] has as its system Rattus norvegicus. As to the kind of experiment: Cumulative effect on spontaneous motor activity in rats at 0.1 mg/kg given perorally. In kind it is functional.
The test system of experiment [3] is Rattus norvegicus. In words: Cumulative effect on spontaneous motor activity in rats at 3 mg/kg given perorally. The class given is functional.
Experiment [4] has as its system Rattus norvegicus. In words: Effect on spontaneous motor activity in rats after 1 hr at 0.1 mg/kg given perorally. The class given is functional.
For experiment [5], the system named is Rattus norvegicus. In words: Effect on spontaneous motor activity in rats after 1 hr at 0.3 mg/kg given perorally. The class given is functional.
Experiment [6] relates to Rattus norvegicus. As to the kind of experiment: Effect on spontaneous motor activity in rats after 1 hr at 1 mg/kg given perorally. The class given is functional.
Experiment [7] has as its system Rattus norvegicus. In words: Effect on spontaneous motor activity in rats after 1 hr at 10 mg/kg given perorally. In kind it is functional.
Experiment [8] relates to Rattus norvegicus. As to the kind of experiment: Effect on spontaneous motor activity in rats after 1 hr at 3 mg/kg given perorally. The class given is functional.
The subject of experiment [9] is Rattus norvegicus. As to the kind of experiment: Effect on spontaneous motor activity in rats after 1 hr at 30 mg/kg given perorally. In kind it is functional.
Experiment [10] concerns Rattus norvegicus. In words: Effect on spontaneous motor activity in rats after 2 hr at 0.1 mg/kg given perorally. The class given is functional.
Experiment [11] has as its system Rattus norvegicus. In words: Effect on spontaneous motor activity in rats after 2 hr at 0.3 mg/kg given perorally. The class given is functional.
Experiment [12] relates to Rattus norvegicus. As to the kind of experiment: Effect on spontaneous motor activity in rats after 2 hr at 1 mg/kg given perorally. The class given is functional.
Experiment [13] deals with Rattus norvegicus. In words: Effect on spontaneous motor activity in rats after 2 hr at 10 mg/kg given perorally. The class given is functional.
Experiment [14] deals with Rattus norvegicus. In words: Effect on spontaneous motor activity in rats after 2 hr at 3 mg/kg given perorally. In kind it is functional.
For experiment [15], the system named is Rattus norvegicus. In words: Effect on spontaneous motor activity in rats after 2 hr at 30 mg/kg given perorally. The class given is functional.
Experiment [16] deals with Rattus norvegicus. As to the kind of experiment: Percentage decrease in systolic blood pressure (heart rate) after 4 hr at 0.3 mg/kg administered perorally in rats. In kind it is functional, Artery.
Experiment [17] deals with Rattus norvegicus. In words: Percentage decrease in systolic blood pressure (heart rate) after 4 hr at 10 mg/kg administered perorally in rats. In kind it is functional, Artery.
Experiment [18] has as its system Rattus norvegicus. As to the kind of experiment: Percentage decrease in systolic blood pressure (heart rate) after 4 hr at 3 mg/kg administered perorally in rats. The class given is functional, Artery.
The test system of experiment [19] is Rattus norvegicus. In words: Percentage decrease in systolic blood pressure (heart rate) after 6 hr at 0.3 mg/kg administered perorally in rats. The class given is functional, Artery.
The subject of experiment [20] is Rattus norvegicus. In words: Percentage decrease in systolic blood pressure (heart rate) after 6 hr at 1 mg/kg administered perorally in rats. The class given is functional, Artery.
In experiment [21] the test system is Rattus norvegicus. As to the kind of experiment: Percentage decrease in systolic blood pressure (heart rate) after 6 hr at 3 mg/kg administered perorally in rats. In kind it is functional, Artery.
For experiment [22], the system named is Rattus norvegicus. As to the kind of experiment: Percentage decrease in systolic blood pressure (heart rate) after 1 hr at 0.3 mg/kg administered perorally in rats. The class given is functional, Artery.
Experiment [23] concerns Rattus norvegicus. In words: Percentage decrease in systolic blood pressure (heart rate) after 1 hr at 10 mg/kg administered perorally in rats. The class given is functional, Artery.
Experiment [24] has as its system Rattus norvegicus. As to the kind of experiment: Percentage decrease in systolic blood pressure (heart rate) after 1 hr at 3 mg/kg administered perorally in rats. In kind it is functional, Artery.
Experiment [25] deals with Rattus norvegicus. In words: Percentage decrease in systolic blood pressure (heart rate) after 24 hr at 0.3 mg/kg administered perorally in rats. In kind it is functional, Artery.
Experiment [26] deals with Rattus norvegicus. In words: Percentage decrease in systolic blood pressure (heart rate) after 24 hr at 1 mg/kg administered perorally in rats. The class given is functional, Artery.
Experiment [27] concerns Rattus norvegicus. As to the kind of experiment: Percentage decrease in systolic blood pressure (heart rate) after 24 hr at 10 mg/kg administered perorally in rats. In kind it is functional, Artery.
Experiment [28] has as its system Rattus norvegicus. As to the kind of experiment: Percentage decrease in systolic blood pressure (heart rate) after 4 hr at 1 mg/kg administered perorally in rats. The class given is functional, Artery.
In experiment [29] the test system is Rattus norvegicus. As to the kind of experiment: Cumulative effect on spontaneous motor activity in rats at 0.3 mg/kg given perorally. The class given is functional.
The test system of experiment [30] is Rattus norvegicus. In words: Percentage decrease in systolic blood pressure (heart rate) after 4 hr at 100 mg/kg administered perorally in rats. The class given is functional, Artery.
In experiment [31] the test system is Rattus norvegicus. In words: Percentage decrease in systolic blood pressure (heart rate) after 24 hr at 100 mg/kg administered perorally in rats. The class given is functional, Artery.

Experimental findings from ChEMBL document CHEMBL1122324, “New antihypertensive cannabinoids” (1983) are described below.

As for `CCCCCCCc1cc(O)c2c(c1)OC(C)(C)c1ccc(C)cc1-2`, the Activity is on record as -89% in the experiment with Rattus norvegicus [1]; -2% with Rattus norvegicus [2]; -20% in the experiment on Rattus norvegicus [3]; -3% in the experiment with Rattus norvegicus [4]; -21% with Rattus norvegicus [5]; -32% in the experiment with Rattus norvegicus [6]. Moreover, the Activity in the experiment on Rattus norvegicus [7] is listed as -46%; in the experiment on Rattus norvegicus [8], -20%; in the experiment with Rattus norvegicus [9], -88%; in the experiment with Rattus norvegicus [10] it was 10%; in the experiment on Rattus norvegicus [11], 28%; in the experiment with Rattus norvegicus [12], 87%. Moreover, the Activity is on record as -98% in the experiment on Rattus norvegicus [13], -17% in the experiment with Rattus norvegicus [14], -94% in the experiment on Rattus norvegicus [15] and -17% in the experiment with Rattus norvegicus [29]. Moreover, the “Decrease in Systolic blood pressure” value was 10% in the experiment with Rattus norvegicus [16]; 58% with Rattus norvegicus [17]; 44% in the experiment on Rattus norvegicus [18]; 2% in the experiment with Rattus norvegicus [19]; 33% with Rattus norvegicus [20]; 38% in the experiment with Rattus norvegicus [21]. Moreover, the “Decrease in Systolic blood pressure” value is 3% with Rattus norvegicus [22]; 9% in the experiment with Rattus norvegicus [23]; 3% in the experiment on Rattus norvegicus [24]; 0% in the experiment with Rattus norvegicus [25]; -7% with Rattus norvegicus [26]; 29% with Rattus norvegicus [27]. Besides, in the experiment on Rattus norvegicus [28], the “Decrease in Systolic blood pressure” value was determined as 20%.
On to `CCCCCc1cc(O)c2c(c1)OC(C)(C)[C@@H]1CCC(C)=C[C@@H]21` [DRONABINOL], for which the “Decrease in Systolic blood pressure” value in the experiment with Rattus norvegicus [30] amounted to 39%; with Rattus norvegicus [31] it was 21%.
